Results from patent US6720424B1, “Aminobenzoic acid derivatives” (Taisho Pharmaceutical Co., Ltd., priority 1999, dated 2004).
Like-named read-outs stand apart in the source and are kept apart here.

Legend:
Flt-1 = target: T1, Flt-1 (Homo sapiens, UniProt P17948); test: (125I)-VEGF binding inhibition on NIH3T3 cells in which Flt-1 was forced to be expressed; conditions: Flt-1-expressing NIH3T3 cells, (125I)-VEGF 25 pM, 90 minutes; read-out: IC50 (concentration of 50% binding inhibition)
T1 construct: expressed in transfected cells; host or cells: NIH3T3
T1 sequence (P17948 27-1338): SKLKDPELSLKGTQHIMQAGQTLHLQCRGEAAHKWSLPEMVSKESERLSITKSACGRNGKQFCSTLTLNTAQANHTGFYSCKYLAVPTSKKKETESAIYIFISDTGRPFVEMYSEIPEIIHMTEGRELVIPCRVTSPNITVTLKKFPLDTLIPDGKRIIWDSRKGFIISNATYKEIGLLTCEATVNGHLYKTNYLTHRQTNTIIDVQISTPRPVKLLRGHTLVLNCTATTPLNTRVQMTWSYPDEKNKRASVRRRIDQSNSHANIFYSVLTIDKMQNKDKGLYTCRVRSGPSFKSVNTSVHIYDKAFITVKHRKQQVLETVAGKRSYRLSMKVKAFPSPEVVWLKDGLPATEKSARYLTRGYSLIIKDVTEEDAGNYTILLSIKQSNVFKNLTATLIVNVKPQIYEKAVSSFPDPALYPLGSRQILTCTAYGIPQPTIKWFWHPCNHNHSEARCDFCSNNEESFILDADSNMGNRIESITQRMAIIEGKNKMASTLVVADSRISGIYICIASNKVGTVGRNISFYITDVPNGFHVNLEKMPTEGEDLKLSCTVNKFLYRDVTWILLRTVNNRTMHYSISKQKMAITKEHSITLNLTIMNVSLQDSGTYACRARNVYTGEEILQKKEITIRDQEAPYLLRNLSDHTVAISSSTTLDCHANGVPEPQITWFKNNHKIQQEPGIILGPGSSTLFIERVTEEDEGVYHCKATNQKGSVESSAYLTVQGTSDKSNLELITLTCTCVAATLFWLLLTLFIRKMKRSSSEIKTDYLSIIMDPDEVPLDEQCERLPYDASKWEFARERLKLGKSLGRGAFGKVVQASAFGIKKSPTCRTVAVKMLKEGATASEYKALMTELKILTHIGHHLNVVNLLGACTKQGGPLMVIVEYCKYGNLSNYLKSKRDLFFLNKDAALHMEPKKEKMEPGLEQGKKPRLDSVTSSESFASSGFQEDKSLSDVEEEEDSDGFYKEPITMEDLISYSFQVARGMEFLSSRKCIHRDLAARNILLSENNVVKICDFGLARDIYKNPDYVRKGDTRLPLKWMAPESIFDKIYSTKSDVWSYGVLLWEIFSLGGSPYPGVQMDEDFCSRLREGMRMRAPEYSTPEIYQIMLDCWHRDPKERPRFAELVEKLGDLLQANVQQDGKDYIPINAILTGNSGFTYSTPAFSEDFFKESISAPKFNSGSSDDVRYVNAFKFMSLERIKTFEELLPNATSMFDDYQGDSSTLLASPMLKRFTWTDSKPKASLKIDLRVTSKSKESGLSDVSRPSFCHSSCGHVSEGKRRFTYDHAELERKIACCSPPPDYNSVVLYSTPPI
Method: (§1) According to the method described in a document (Cell Growth & Differentiation, vol. 7, pp. 213-221, 1996), the following tests were carried out.
(§2) NIH3T3 cells in which Flt-1 was forced to be expressed were seeded on a 24-well collagen-coated plate (7×10^4/well), and were cultured in Dulbecco's modified Eagle's medium (DMEM) including 10% bovine serum and 200 μg/ml of Geneticin G418, for 24 hours at 37° C. under an atmosphere of 5% carbon dioxide gas. The cells were preincubated in Buffer A (including 10 mM HEPES (N-2-hydroxyethylpiperazine-N′-2-ethanesulfonic acid) and 0.1% BSA (bovine serum albumin) in DMEM), for 30 minutes at 4° C. Subsequently, the medium was replaced with Buffer B (including 10 mM HEPES and 0.5% BSA in DMEM). A test solution prepared by dissolving each of the test compounds shown in Table 19 in dimethylsulfoxide and subsequently diluting the solution into a prescribed concentration with Buffer B, and (^125I)-VEGF (the final concentration was set to 25 pM) were added thereto. Binding reaction was carried out for 90 minutes at […]. After completion of the reaction, the cells were washed three times with ice-cooled Buffer A. Subsequently, 0.5 ml of 0.5M NaOH were added to each well, and the cells were lysed in 30 minutes at room temperature. The radioactivity of the lysed cells in each well was measured by means of a gamma counter, and a total binding quantity of (^125I)-VEGF was calculated. Nonspecific binding quantity of (^125I)-VEGF was measured by competition assay in the presence of 10 nM non-labeled VEGF. The specific binding quantity of (^125I)-VEGF was calculated from the difference between the total binding quantity of (^125I)-VEGF and nonspecific binding quantity of (^125I)-VEGF.
(§3) The binding inhibition index of the test compounds was calculated by the following equation. [formula]
(§4) From this value, a concentration of 50% binding inhibition (IC50) of the test compound was calculated.

KDR = target: T2, KDR (Homo sapiens, UniProt P35968); test: (125I)-VEGF binding inhibition on NIH3T3 cells in which KDR was forced to be expressed; conditions: KDR-expressing NIH3T3 cells, (125I)-VEGF 25 pM, 90 minutes, read-out: IC50 (concentration of 50% binding inhibition)
T2 construct: expressed in transfected cells; host or cells: NIH3T3
T2 sequence (P35968 20-1356): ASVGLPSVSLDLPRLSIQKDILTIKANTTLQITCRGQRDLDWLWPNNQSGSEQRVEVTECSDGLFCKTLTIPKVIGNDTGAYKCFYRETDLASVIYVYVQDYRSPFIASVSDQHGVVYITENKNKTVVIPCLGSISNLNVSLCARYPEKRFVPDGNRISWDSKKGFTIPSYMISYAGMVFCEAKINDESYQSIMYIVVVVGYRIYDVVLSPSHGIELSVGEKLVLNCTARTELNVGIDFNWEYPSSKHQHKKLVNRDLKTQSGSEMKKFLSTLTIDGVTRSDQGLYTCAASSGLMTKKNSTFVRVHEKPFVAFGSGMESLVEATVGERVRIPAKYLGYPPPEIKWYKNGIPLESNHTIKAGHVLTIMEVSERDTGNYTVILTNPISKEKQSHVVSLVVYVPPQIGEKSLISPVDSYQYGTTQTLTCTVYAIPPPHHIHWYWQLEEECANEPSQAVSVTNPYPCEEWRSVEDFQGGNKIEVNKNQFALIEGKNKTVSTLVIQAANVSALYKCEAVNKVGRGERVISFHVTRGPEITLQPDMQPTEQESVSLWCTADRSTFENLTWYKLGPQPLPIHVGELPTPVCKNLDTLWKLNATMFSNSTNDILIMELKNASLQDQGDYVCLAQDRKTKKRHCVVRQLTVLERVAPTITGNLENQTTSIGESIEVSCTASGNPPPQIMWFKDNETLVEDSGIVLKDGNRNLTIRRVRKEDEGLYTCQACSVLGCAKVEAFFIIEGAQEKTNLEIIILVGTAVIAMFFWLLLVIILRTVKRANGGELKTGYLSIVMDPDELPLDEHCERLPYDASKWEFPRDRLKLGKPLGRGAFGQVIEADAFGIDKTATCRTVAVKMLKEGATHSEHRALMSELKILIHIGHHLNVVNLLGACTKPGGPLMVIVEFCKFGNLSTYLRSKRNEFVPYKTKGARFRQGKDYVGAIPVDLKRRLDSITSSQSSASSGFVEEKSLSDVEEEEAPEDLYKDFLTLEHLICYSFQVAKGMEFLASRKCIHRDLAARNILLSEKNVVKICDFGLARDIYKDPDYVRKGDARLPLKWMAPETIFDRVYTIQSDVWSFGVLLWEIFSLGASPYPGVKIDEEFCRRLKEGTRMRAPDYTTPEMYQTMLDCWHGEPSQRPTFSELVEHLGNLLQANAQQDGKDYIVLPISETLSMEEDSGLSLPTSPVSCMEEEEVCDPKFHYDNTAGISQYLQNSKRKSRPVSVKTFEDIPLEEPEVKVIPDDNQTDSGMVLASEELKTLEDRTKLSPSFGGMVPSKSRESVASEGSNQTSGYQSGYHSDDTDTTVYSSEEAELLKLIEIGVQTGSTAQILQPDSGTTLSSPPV
Method: as §1, §2, §3, §4
Test on each of the test compounds shown in Table 20 and Table 21 was carried out employing NIH3T3 cells in which KDR was forced to be expressed, in the same manner as described in Experimental Example 1 described above.

Row | Compound | IC50 (Flt-1) | IC50 (KDR; Table 20) | melting point | IC50 (KDR; Table 21)
1 | CCCCCCCCCCCCCCCCCCOc1ccc(CCC(=O)Nc2ccc(Oc3cccc(C(=O)O)c3)c(C(=O)O)c2)cc1 [Compound 28] | 710 nM | 420 nM | 201 to 205 °C | 
2 | CCCCCCCCCCCCCCCCCCOc1ccc(CCC(=O)N(C)c2ccc(SC)c(C(=O)O)c2)cc1 [Compound 113] | 280 nM |  | 106 to 108 °C | 80 nM
3 | CCCCCCCCCCCCCCCCCCOc1ccc(CCC(=O)Nc2ccc(Oc3ccc(C(=O)O)cc3)c(C(=O)O)c2)cc1 [Compound 27] | 680 nM | 510 nM | 213 to 215 °C | 
4 | CCCCCCCCCCCCCCCCCCOc1ccc(CCC(=O)Nc2cc(C(=O)O)ccc2Oc2ccc3cc(C(=O)O)ccc3c2)cc1 [Compound 38] |  | 710 nM | 214 to 219 °C | 
5 | CCCCCCCCCCCCCCCCCCOc1ccc(CCC(=O)Nc2ccc(Oc3ccc(CCC(=O)O)cc3)c(C(=O)O)c2)cc1 [Compound 33] |  | 260 nM | 156 to 160 °C | 
6 | CCCCCCCCCCCCCCCCCCOc1ccc(CCC(=O)Nc2cc(C(=O)O)ccc2Sc2cccc(C(=O)O)c2)cc1 [Compound 43] |  | 660 nM | 246 to 248 °C | 

Second part, the compound after the results:

Row | IC50 (Flt-1) | IC50 (KDR; Table 20) | melting point | IC50 (KDR; Table 21) | Compound
7 | 420 nM |  |  | 340 nM | CCCCCCCCCCCCCCCCCCOc1ccc(CC(=O)N(C)c2ccc(SC)c(C(=O)O)c2)cc1 [Compound 114]
8 |  |  | 178 to 181 °C | 930 nM | CCCCCCCCCCCCCCCCCCOc1ccc(CCC(=O)Nc2cc(C(=O)O)ccc2SCc2ccccc2)cc1 [Compound 148]
9 |  |  | 76 to 80 °C | 670 nM | CCCCCCCCCCCCCCCCCCOc1ccc(CC(=O)N(C)c2ccc(SCCC)c(C(=O)O)c2)cc1 [Compound 155]
